Data from ChEMBL document CHEMBL5724914, “Linking interpersonal differences in gut microbiota composition and drug biotransformation activity” (2024).

Legend:
[1] = human gut metagenome, 24 h, 2 µM
[2] = human gut metagenome, 24 h, 2 µM; remark: listed apart in the source
[3] = (§1) The drug is tested on WLS-006 corresponding to human gut metagenome with ENA study accession number: PRJEB37062 and ENA sample accession number: ERS12561741 for biotransformation under anaerobic condition. The drug concentrations were measured over 9 timepoints collected between 0 and 24 hours of incubation by liquid-chromatography-coupled mass spectrometry (LC–MS); settings: 2 µM
[4] = as §1, with “WLS-052” for “WLS-006”, “ERS12561747” for “ERS12561741”; settings: 2 µM
[5] = as §1, with “Z-017” for “WLS-006”, “mouse” for “human”, “ERS12561816” for “ERS12561741”; settings: 2 µM
[6] = human gut metagenome, 24 h, 2 µM; remark: listed apart in the source
[7] = as §1, with “WLS-027” for “WLS-006”, “ERS12561744” for “ERS12561741”; settings: 2 µM
[8] = as §1, with “Z-007” for “WLS-006”, “rat” for “human”, “ERS12561807” for “ERS12561741”; settings: 2 µM
[9] = as §1, with “Z-024” for “WLS-006”, “pig” for “human”, “ERS12561823” for “ERS12561741”; settings: 2 µM
[10] = as §1, with “Z-001” for “WLS-006”, “mouse” for “human”, “ERS12561801” for “ERS12561741”; settings: 2 µM
[11] = as §1, with “Z-002” for “WLS-006”, “rabbit” for “human”, “ERS12561802” for “ERS12561741”; settings: 2 µM
[12] = human gut metagenome, 24 h, 2 µM; remark: listed apart in the source
[13] = human gut metagenome, 24 h, 2 µM; remark: listed apart in the source
[14] = as §1, with “WLS-220” for “WLS-006”, “ERS12561769” for “ERS12561741”; settings: 2 µM
[15] = as §1, with “Z-011” for “WLS-006”, “mouse” for “human”, “ERS12561811” for “ERS12561741”; settings: 2 µM
[16] = as §1, with “WLS-007” for “WLS-006”, “ERS12561742” for “ERS12561741”; settings: 2 µM
[17] = as §1, with “WLS-073” for “WLS-006”, “ERS12561749” for “ERS12561741”; settings: 2 µM
[18] = human gut metagenome, 24 h, 2 µM; remark: listed apart in the source
[19] = as §1, with “Z-014” for “WLS-006”, “rat” for “human”, “ERS12561814” for “ERS12561741”; settings: 2 µM
[20] = human gut metagenome, 24 h, 2 µM; remark: listed apart in the source
Also: call rule not given here.

Row | Bacterial Biotransformation [1] | Bacterial Biotransformation [2] | Bacterial Biotransformation [3] | Bacterial Biotransformation [4] | Bacterial Biotransformation [5] | Bacterial Biotransformation [6] | Bacterial Biotransformation [7] | Bacterial Biotransformation [8] | Bacterial Biotransformation [9] | Bacterial Biotransformation [10] | Bacterial Biotransformation [11] | Bacterial Biotransformation [12] | Bacterial Biotransformation [13] | Bacterial Biotransformation [14] | Bacterial Biotransformation [15] | Bacterial Biotransformation [16] | Bacterial Biotransformation [17] | Bacterial Biotransformation [18] | Bacterial Biotransformation [19] | Bacterial Biotransformation [20] | Structure (SMILES)
1 | Compound metabolized | Compound metabolized | Compound metabolized | Compound metabolized | Compound NOT metabolized | Compound metabolized | Compound metabolized | Compound NOT metabolized | Compound metabolized | Compound NOT metabolized | Compound metabolized | Compound metabolized | Compound metabolized | Compound metabolized | Compound NOT metabolized | Compound metabolized | Compound metabolized | Compound metabolized | Compound NOT metabolized | Compound metabolized | O=C1C(CC[S+]([O-])c2ccccc2)C(=O)N(c2ccccc2)N1c1ccccc1 (stereo not given) [SULFINPYRAZONE]
2 | Compound metabolized | Compound NOT metabolized | Compound metabolized | Compound NOT metabolized | Compound NOT metabolized | Compound NOT metabolized | Compound NOT metabolized | Compound NOT metabolized | Compound NOT metabolized | Compound NOT metabolized | Compound metabolized | Compound NOT metabolized | Compound NOT metabolized | Compound NOT metabolized | Compound NOT metabolized | Compound NOT metabolized | Compound NOT metabolized | Compound NOT metabolized | Compound NOT metabolized | Compound metabolized | CCOc1ccccc1OCCN[C@H](C)Cc1ccc(OC)c(S(N)(=O)=O)c1.Cl [TAMSULOSIN HYDROCHLORIDE]
3 | Compound metabolized | Compound NOT metabolized | Compound NOT metabolized | Compound NOT metabolized | Compound NOT metabolized | Compound NOT metabolized | Compound NOT metabolized | Compound NOT metabolized | Compound NOT metabolized | Compound NOT metabolized | Compound NOT metabolized | Compound NOT metabolized | Compound NOT metabolized | Compound NOT metabolized | Compound NOT metabolized | Compound NOT metabolized | Compound NOT metabolized | Compound NOT metabolized | Compound NOT metabolized | Compound NOT metabolized | c1ccc2[nH]c(-c3cscn3)nc2c1 [THIABENDAZOLE]

The next lines start with the molecule.

Row | Structure (SMILES) | Bacterial Biotransformation [1] | Bacterial Biotransformation [2] | Bacterial Biotransformation [3] | Bacterial Biotransformation [4] | Bacterial Biotransformation [5] | Bacterial Biotransformation [6] | Bacterial Biotransformation [7] | Bacterial Biotransformation [8] | Bacterial Biotransformation [9] | Bacterial Biotransformation [10] | Bacterial Biotransformation [11] | Bacterial Biotransformation [12] | Bacterial Biotransformation [13] | Bacterial Biotransformation [14] | Bacterial Biotransformation [15] | Bacterial Biotransformation [16] | Bacterial Biotransformation [17] | Bacterial Biotransformation [18] | Bacterial Biotransformation [19] | Bacterial Biotransformation [20]
4 | O=C(O)CCC(=O)O.O=C(O[C@H]1CN2CCC1CC2)N1CCc2ccccc2[C@@H]1c1ccccc1 [SOLIFENACIN SUCCINATE] | Compound metabolized | Compound NOT metabolized | Compound metabolized | Compound NOT metabolized | Compound NOT metabolized | Compound NOT metabolized | Compound metabolized | Compound NOT metabolized | Compound metabolized | Compound NOT metabolized | Compound metabolized | Compound NOT metabolized | Compound NOT metabolized | Compound NOT metabolized | Compound NOT metabolized | Compound metabolized | Compound metabolized | Compound metabolized | Compound NOT metabolized | Compound metabolized
5 | O=C(CCCN1CCC2(CC1)C(=O)NCN2c1ccccc1)c1ccc(F)cc1 [SPIPERONE] | Compound NOT metabolized | Compound NOT metabolized | Compound metabolized | Compound NOT metabolized | Compound NOT metabolized | Compound NOT metabolized | Compound NOT metabolized | Compound NOT metabolized | Compound NOT metabolized | Compound NOT metabolized | Compound NOT metabolized | Compound metabolized | Compound NOT metabolized | Compound metabolized | Compound NOT metabolized | Compound NOT metabolized | Compound NOT metabolized | Compound NOT metabolized | Compound NOT metabolized | Compound NOT metabolized
6 | COc1cc2nc(N3CCN(C(=O)C4CCCO4)CC3)nc(N)c2cc1OC (stereo not given) [TERAZOSIN] | Compound metabolized | Compound NOT metabolized | Compound metabolized | Compound NOT metabolized | Compound NOT metabolized | Compound NOT metabolized | Compound NOT metabolized | Compound NOT metabolized | Compound NOT metabolized | Compound NOT metabolized | Compound NOT metabolized | Compound metabolized | Compound NOT metabolized | Compound metabolized | Compound metabolized | Compound metabolized | Compound metabolized | Compound NOT metabolized | Compound NOT metabolized | Compound metabolized
7 | CCN(CC)CCNC(=O)c1cc(S(C)(=O)=O)ccc1OC [TIAPRIDE] | Compound metabolized | Compound NOT metabolized | Compound NOT metabolized | Compound NOT metabolized | Compound NOT metabolized | Compound NOT metabolized | Compound NOT metabolized | Compound NOT metabolized | Compound NOT metabolized | Compound metabolized | Compound metabolized | Compound metabolized | Compound NOT metabolized | Compound metabolized | Compound metabolized | Compound NOT metabolized | Compound NOT metabolized | Compound NOT metabolized | Compound NOT metabolized | Compound NOT metabolized
8 | CC(C)(C)NC[C@H](O)COc1nsnc1N1CCOCC1.O=C(O)/C=C\C(=O)O [TIMOLOL MALEATE] | Compound NOT metabolized | Compound NOT metabolized | Compound NOT metabolized | Compound NOT metabolized | Compound NOT metabolized | Compound NOT metabolized | Compound NOT metabolized | Compound NOT metabolized | Compound NOT metabolized | Compound NOT metabolized | Compound NOT metabolized | Compound NOT metabolized | Compound NOT metabolized | Compound NOT metabolized | Compound NOT metabolized | Compound NOT metabolized | Compound NOT metabolized | Compound NOT metabolized | Compound NOT metabolized | Compound NOT metabolized
